Measurements reported in patent US9636311B2, “N,N′-di-1 naphthylguanidine HCl (NAGH) and N,N′-di-p-nitrophenylguanidine HCl (NAD) treatment for stroke at delayed timepoints” (University of South Florida, priority 2012, dated 2017).

How the values were obtained:
Assay type in all cases: in vivo, rat
rats following MCAO [1] = assay: Brain infarction quantification (Nissl thionin) after MCAO; conditions: s.c. daily for 3 days from 24 h post-MCAO (NAGH 0.86 mg/kg, NAD 2.8 mg/kg); 30 days post MCAO; mean±SEM
Experimental: All animal procedures were performed according to the University of South Florida guidelines for the care and use of animals and protocols were reviewed and approved by the Institutional Animal Care and Use Committee and adhered to the NIH guidelines for the care and use of animals. Adult male Sprague Dawley rats (Harlan) weighing about 250-300 g at the time of surgery were used for the study. All animals were housed two per cage in a temperature controlled room, under a 12 hour light-dark cycle, and given access to water and food ad libitum. Animals were monitored daily for wellness and biweekly for weight loss. For the NAGH studies, a total of 84 animals were randomly assigned to 2 groups: MCAO only (n=42) and rat treated with NAGH (n=42) beginning 24 hour after MCAO.
(§1) MCAO surgeries were performed as described elsewhere (Vendrame M, Cassady C J, Newcomb J, Butler T, Pennypacker K R, Zigova T, et al. Stroke. 2004; 35:2390-2395). Briefly, rats were anesthetized with isoflurane, and the right common carotid and external carotid arteries were exposed using blunt dissection techniques. The vagus nerve was separated from common carotid artery and the external carotid artery was ligated proximally, and transected near the bifurcation. An embolus 40 mm in length (4.0 siliconized monofilament) was inserted into the external carotid artery and fed distally into the origin of the middle cerebral artery (˜25 mm from insertion) through the internal carotid artery. Blood samples were taken and analyzed using an i-STAT handheld analyzer for hemoglobin, hematocrit, ionized calcium, glucose, sodium, potassium, pH, pCO2, HCO3, TCO2, base excess, pO2, and O2. Cerebral blood flow was recorded using a Laser Doppler Monitor (Moor Instruments) to verify occlusion. Afterwards, the embolus was ligated permanently into the vessel and the neck incision was closed. Animals were treated with Ketoprofen IM (10 mg/kg) for three days post-surgery.
(§2) For the NAGH studies, vehicle or NAGH were prepared fresh each day. Daily subcutaneous injections (s.c) were administered beginning about 24 hours after MCAO and continued daily to about 72 hours post-surgery (FIG. 1). Animals received a total of 3 injections. A total of 84 animals were randomly assigned into 2 groups: Rats treated with vehicle (40% DMSO in sterile saline, n=42), or rats treated with 0.86 mg/kg NAGH (n=42).
For the studies with other compounds based on the structure of DTG, twenty-four hours after MCAO, the rats began a sigma agonist treatment regimen. Vehicle or drug was prepared fresh each day. […]
Infarct size was determined by Nissl thionin staining. […]

rats following MCAO [2] = assay: Elevated body swing test after MCAO; conditions: 30 days after MCAO; p=0.009
Experimental: as §1, with “Afterwards, the embolus was ligated permanently into the vessel and the neck incision was closed. Animals were treated with Ketoprofen IM (10 mg/kg) for three days post-surgery.” left out
The animal was placed in a Plexiglas box (40×40×35.5 cm), allowed to habituate for 2 minutes and attain a neutral position, defined as having all four paws on the ground. […] A swing was recorded whenever the animal moved its head out of the vertical axis to the right or left over […]. Swings were recorded using a hand counter. […]

rats following MCAO [3] = assay: White matter injury, Luxol Fast Blue staining after MCAO; conditions: 30 days post-stroke
Experimental: as §1, §2
To evaluate white matter injury, coronal brain sections from each the animals were stained with Luxol Fast Blue (LFB; Sigma-Aldrich). For Luxol Fast Blue (LFB) staining, slides were dehydrated in 95% ethanol and incubated in LFB solution at 56° C. overnight. The following day slides were rinsed in 95% ethanol and distilled water and differentiated in 0.1% lithium carbonate solution for 20 s followed by 70% ethyl alcohol for 30 s, and finally rinsed in distilled water. After complete gray and white matter differentiation, slides were dehydrated and placed under coverslips with DPX. The quantitative analysis for demyelination in LFB staining section was performed as described previously with some modification (Virgili, Espinosa-Parrilla et al. 2011; Yu, Gong et al. 2012). LFB stained area was measured on the randomly selected sections (n=21-23 animals/group) to assess demyelination. The extent of the LFB positive area was quantified using a pixel grayscale approach in ImageJ software (National Institute of Health, USA). […] Once calibrated, the amount of LFB staining was measured as the percentage of hemispheric area using ImageJ software.

Cl.N=C(Nc1cccc2ccccc12)Nc1cccc2ccccc12 [NAGH, N,N′-di-1-Naphthylguanidine hydrochloride]
Infarct volume (percent of hemisphere) (rats following MCAO [1]): 13.58±2.3%
EBST bias vs DMSO (rats following MCAO [2]): significantly less bias
White matter tracts (LFB) vs DMSO (rats following MCAO [3]): white matter tracts were more intact
Percent change in LFB staining from contralateral to ipsilateral hemisphere (rats following MCAO [3]; p<0.05 vs DMSO): −0.73+7.7%
LFB staining, ischemic hemisphere (percentage of hemispheric area) (rats following MCAO [3]; NAGH 0.86 mg/kg s.c. x3, n=22): 10.32±0.48%
LFB staining, non-ischemic hemisphere (percentage of hemispheric area) (rats following MCAO [3]; NAGH 0.86 mg/kg s.c. x3, n=22): 9.81±0.38%
